Values quoted from earlier work in US20050107870A1, “Medical device with multiple coating layers” (priority 2003, published 2005).
Counter-ions that a name gives are not always drawn.

Key:
[1] = hydrophilic magnetically responsive microspheres
[2] = test system: breast cancer cells
[3] = test system: cancer cells; conditions: exposed to low-level electromagnetic fields present in some North American homes

COc1cccc2c1C(=O)c1c(O)c3c(c(O)c1C2=O)C[C@@](O)(C(=O)CO)C[C@@H]3O[C@H]1C[C@H](N)[C@H](O)[C@H](C)O1 [adriamycin, doxorubicin hydrochloride]
incorporated concentration of therapeutic agent in microspheres [1]: up to 50 wt %

COc1ccc2[nH]cc(CCNC(C)=O)c2c1 [melatonin]
growth of breast cancer cells ([2]; cells exposed to 2 milligauss magnetic fields): inhibit the growth of breast cancer cells | growth-inhibiting activity on breast cancer cells ([2]; cells in a 12 milliGauss field): essentially reased

CC/C(=C(\c1ccccc1)c1ccc(OCCN(C)C)cc1)c1ccccc1 [tamoxifen]
ability to halt the proliferation of cancer cells [3]: lost its ability to halt the proliferation of cancer cells
